Counter-ions that a name gives are not always drawn.
Assays:
Details in all cases: exposure time: 72 h
E13 [1] = patient-derived glioblastoma stem cells of classical subtype; assay: surviving fraction (nuclei count normalised to DMSO); higher = more cells surviving (less toxic)
E31 [2] = patient-derived glioblastoma stem cells of proneural subtype; assay: as above
E34 [3] = patient-derived glioblastoma stem cells of proneural subtype; assay: as above
E28 [4] = patient-derived glioblastoma stem cells of classical subtype; assay: as above
E21 [5] = patient-derived glioblastoma stem cells of mesenchymal subtype; assay: as above
FT3469 [6] = normal neural stem cell line; assay: as above
E57 [7] = patient-derived glioblastoma stem cells of mesenchymal subtype; assay: as above
E13 [8] = assay: phenotypic distance (Euclidean, principal components) from DMSO controls (arbitrary units); higher = stronger morphological change
E31 [9] = assay: as above
E34 [10] = assay: as above
E28 [11] = assay: as above
E21 [12] = assay: as above
FT3469 [13] = assay: as above
E57 [14] = assay: as above
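For phenotypic distance (Euclidean, principal components) from DMSO controls in this document: cell Painting imaging in 384-well plates, CellProfiler features reduced to at least 20 principal components, Euclidean distance versus same-plate DMSO vehicle wells (0.1% v/v), median over six images per well.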
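For surviving fraction (nuclei count normalised to DMSO) in this document: nuclei counted by high-content imaging of Hoechst-stained cells in laminin-coated 384-well plates, relative to 0.1% DMSO vehicle wells, with staurosporine as cell-death control.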

Cc1ccc(S(=O)(=O)/C=C/C#N)cc1 [Bay 11-7082]
Details	phenotypic distance	surviving fraction
E13 [1], 4.1 nM	–	0.964
E13 [1], 12.3 nM	–	1.06
E13 [1], 37 nM	–	1.03
E13 [1], 111.1 nM	–	0.988
E13 [1], 333.3 nM	–	0.976
E13 [1], 1000 nM	–	0.692
E13 [1], 3000 nM	–	0.0324
E13 [8], 4.1 nM	0.928	–
E13 [8], 12.3 nM	0.789	–
E13 [8], 37 nM	0.388	–
E13 [8], 111.1 nM	0.428	–
E13 [8], 333.3 nM	0.7	–
E13 [8], 1000 nM	2.5	–
E13 [8], 3000 nM	13.2	–
E21 [5], 4.1 nM	–	1.01
E21 [5], 12.3 nM	–	1.06
E21 [5], 37 nM	–	0.902
E21 [5], 111.1 nM	–	1
E21 [5], 333.3 nM	–	0.952
E21 [5], 1000 nM	–	0.67
E21 [5], 3000 nM	–	0.000991
E21 [12], 4.1 nM	0.363	–
E21 [12], 12.3 nM	0.689	–
E21 [12], 37 nM	0.461	–
E21 [12], 111.1 nM	0.482	–
E21 [12], 333.3 nM	0.803	–
E21 [12], 1000 nM	2.09	–
E21 [12], 3000 nM	18.7	–
E28 [4], 4.1 nM	–	1.16
E28 [4], 12.3 nM	–	1.07
E28 [4], 37 nM	–	1.02
E28 [4], 111.1 nM	–	0.918
E28 [4], 333.3 nM	–	0.805
E28 [4], 1000 nM	–	0.523
E28 [4], 3000 nM	–	0.00427
E28 [11], 4.1 nM	0.601	–
E28 [11], 12.3 nM	0.591	–
E28 [11], 37 nM	0.652	–
E28 [11], 111.1 nM	1.11	–
E28 [11], 333.3 nM	1.33	–
E28 [11], 1000 nM	1.83	–
E28 [11], 3000 nM	16.4	–
E31 [2], 4.1 nM	–	0.981
E31 [2], 12.3 nM	–	1.12
E31 [2], 37 nM	–	1.07
E31 [2], 111.1 nM	–	0.915
E31 [2], 333.3 nM	–	0.833
E31 [2], 1000 nM	–	0.574
E31 [2], 3000 nM	–	0.00325
E31 [9], 4.1 nM	0.798	–
E31 [9], 12.3 nM	0.511	–
E31 [9], 37 nM	0.513	–
E31 [9], 111.1 nM	0.736	–
E31 [9], 333.3 nM	0.957	–
E31 [9], 1000 nM	1.61	–
E31 [9], 3000 nM	15.2	–
E34 [3], 4.1 nM	–	1.17
E34 [3], 12.3 nM	–	0.972
E34 [3], 37 nM	–	1.03
E34 [3], 111.1 nM	–	0.881
E34 [3], 333.3 nM	–	1.04
E34 [3], 1000 nM	–	0.841
E34 [3], 3000 nM	–	0.208
E34 [10], 4.1 nM	1.17	–
E34 [10], 12.3 nM	0.478	–
E34 [10], 37 nM	0.466	–
E34 [10], 111.1 nM	0.813	–
E34 [10], 333.3 nM	0.985	–
E34 [10], 1000 nM	0.91	–
E34 [10], 3000 nM	9.42	–
E57 [7], 4.1 nM	–	0.965
E57 [7], 12.3 nM	–	0.935
E57 [7], 37 nM	–	0.978
E57 [7], 111.1 nM	–	0.894
E57 [7], 333.3 nM	–	0.905
E57 [7], 1000 nM	–	0.712
E57 [7], 3000 nM	–	0.107
E57 [14], 4.1 nM	0.529	–
E57 [14], 12.3 nM	0.37	–
E57 [14], 37 nM	0.668	–
E57 [14], 111.1 nM	0.846	–
E57 [14], 333.3 nM	1.16	–
E57 [14], 1000 nM	2.8	–
E57 [14], 3000 nM	8.7	–
FT3469 [6], 4.1 nM	–	0.987
FT3469 [6], 12.3 nM	–	0.984
FT3469 [6], 37 nM	–	0.932
FT3469 [6], 111.1 nM	–	0.814
FT3469 [6], 333.3 nM	–	0.809
FT3469 [6], 1000 nM	–	0.714
FT3469 [6], 3000 nM	–	0.0259
FT3469 [13], 4.1 nM	0.889	–
FT3469 [13], 12.3 nM	0.728	–
FT3469 [13], 37 nM	0.551	–
FT3469 [13], 111.1 nM	0.796	–
FT3469 [13], 333.3 nM	1.04	–
FT3469 [13], 1000 nM	2.13	–
FT3469 [13], 3000 nM	17.6	–

CC(C)C[C@H]1C(=O)N2CCC[C@H]2[C@]2(O)O[C@](NC(=O)[C@@H]3C=C4c5cccc6[nH]c(Br)c(c56)C[C@H]4N(C)C3)(C(C)C)C(=O)N12 [Bromocryptine mesylate]
Details	phenotypic distance	surviving fraction
E13 [1], 4.1 nM	–	0.907
E13 [1], 12.3 nM	–	0.944
E13 [1], 37 nM	–	0.958
E13 [1], 111.1 nM	–	0.816
E13 [1], 333.3 nM	–	0.981
E13 [1], 1000 nM	–	0.976
E13 [1], 3000 nM	–	0.8
E13 [8], 4.1 nM	0.797	–
E13 [8], 12.3 nM	0.698	–
E13 [8], 37 nM	0.44	–
E13 [8], 111.1 nM	1.07	–
E13 [8], 333.3 nM	0.683	–
E13 [8], 1000 nM	1.03	–
E13 [8], 3000 nM	1.57	–
E21 [5], 4.1 nM	–	1.06
E21 [5], 12.3 nM	–	1.02
E21 [5], 37 nM	–	1.05
E21 [5], 111.1 nM	–	0.989
E21 [5], 333.3 nM	–	1
E21 [5], 1000 nM	–	0.969
E21 [5], 3000 nM	–	0.967
E21 [12], 4.1 nM	0.67	–
E21 [12], 12.3 nM	0.901	–
E21 [12], 37 nM	0.972	–
E21 [12], 111.1 nM	0.667	–
E21 [12], 333.3 nM	0.353	–
E21 [12], 1000 nM	0.811	–
E21 [12], 3000 nM	0.593	–
E28 [4], 4.1 nM	–	1.1
E28 [4], 12.3 nM	–	1.07
E28 [4], 37 nM	–	1.07
E28 [4], 111.1 nM	–	1.12
E28 [4], 333.3 nM	–	0.978
E28 [4], 1000 nM	–	1.05
E28 [4], 3000 nM	–	0.779
E28 [11], 4.1 nM	1.04	–
E28 [11], 12.3 nM	0.531	–
E28 [11], 37 nM	0.575	–
E28 [11], 111.1 nM	0.661	–
E28 [11], 333.3 nM	0.642	–
E28 [11], 1000 nM	0.784	–
E28 [11], 3000 nM	1.28	–
E31 [2], 4.1 nM	–	1.07
E31 [2], 12.3 nM	–	1.06
E31 [2], 37 nM	–	0.944
E31 [2], 111.1 nM	–	1.15
E31 [2], 333.3 nM	–	1.03
E31 [2], 1000 nM	–	1.13
E31 [2], 3000 nM	–	0.897
E31 [9], 4.1 nM	0.381	–
E31 [9], 12.3 nM	0.548	–
E31 [9], 37 nM	0.581	–
E31 [9], 111.1 nM	0.404	–
E31 [9], 333.3 nM	0.658	–
E31 [9], 1000 nM	0.705	–
E31 [9], 3000 nM	0.828	–
E34 [3], 4.1 nM	–	0.907
E34 [3], 12.3 nM	–	0.846
E34 [3], 37 nM	–	0.967
E34 [3], 111.1 nM	–	1.16
E34 [3], 333.3 nM	–	0.879
E34 [3], 1000 nM	–	1.05
E34 [3], 3000 nM	–	0.727
E34 [10], 4.1 nM	0.67	–
E34 [10], 12.3 nM	0.914	–
E34 [10], 37 nM	0.493	–
E34 [10], 111.1 nM	0.843	–
E34 [10], 333.3 nM	1.2	–
E34 [10], 1000 nM	0.94	–
E34 [10], 3000 nM	1.28	–
E57 [7], 4.1 nM	–	0.932
E57 [7], 12.3 nM	–	1.13
E57 [7], 37 nM	–	0.893
E57 [7], 111.1 nM	–	1.05
E57 [7], 333.3 nM	–	1.01
E57 [7], 1000 nM	–	0.91
E57 [7], 3000 nM	–	0.777
E57 [14], 4.1 nM	0.496	–
E57 [14], 12.3 nM	0.874	–
E57 [14], 37 nM	0.757	–
E57 [14], 111.1 nM	5.36	–
E57 [14], 333.3 nM	0.51	–
E57 [14], 1000 nM	0.474	–
E57 [14], 3000 nM	1.74	–
FT3469 [6], 4.1 nM	–	0.76
FT3469 [6], 12.3 nM	–	0.909
FT3469 [6], 37 nM	–	1.01
FT3469 [6], 111.1 nM	–	0.932
FT3469 [6], 333.3 nM	–	0.984
FT3469 [6], 1000 nM	–	1.01
FT3469 [6], 3000 nM	–	0.912
FT3469 [13], 4.1 nM	1.05	–
FT3469 [13], 12.3 nM	1.08	–
FT3469 [13], 37 nM	0.956	–
FT3469 [13], 111.1 nM	0.691	–
FT3469 [13], 333.3 nM	0.43	–
FT3469 [13], 1000 nM	0.442	–
FT3469 [13], 3000 nM	0.73	–
